Experiments:
Type in all cases: cell-based
IKZF2 = target: T1, IKZF2 (Homo sapiens, UniProt Q96SW2+Q9UKS7); test: Western-blot assay, substrate protein degradation in hPBMCs: IKZF2; details: for IKZF2 substrate protein remaining %: compounds at 50 nM and 500 nM, 24 hours; for substrate protein remaining % IKZF2: 24 hours of compound treatment, 50 nM and 500 nM
T1 construct: effects of the compounds of the present disclosure on the expression of target proteins in cells; endogenous in cells; host or cells: human PBMCs (hPBMCs)
T1 sequence (Q9UKS7 whole entry): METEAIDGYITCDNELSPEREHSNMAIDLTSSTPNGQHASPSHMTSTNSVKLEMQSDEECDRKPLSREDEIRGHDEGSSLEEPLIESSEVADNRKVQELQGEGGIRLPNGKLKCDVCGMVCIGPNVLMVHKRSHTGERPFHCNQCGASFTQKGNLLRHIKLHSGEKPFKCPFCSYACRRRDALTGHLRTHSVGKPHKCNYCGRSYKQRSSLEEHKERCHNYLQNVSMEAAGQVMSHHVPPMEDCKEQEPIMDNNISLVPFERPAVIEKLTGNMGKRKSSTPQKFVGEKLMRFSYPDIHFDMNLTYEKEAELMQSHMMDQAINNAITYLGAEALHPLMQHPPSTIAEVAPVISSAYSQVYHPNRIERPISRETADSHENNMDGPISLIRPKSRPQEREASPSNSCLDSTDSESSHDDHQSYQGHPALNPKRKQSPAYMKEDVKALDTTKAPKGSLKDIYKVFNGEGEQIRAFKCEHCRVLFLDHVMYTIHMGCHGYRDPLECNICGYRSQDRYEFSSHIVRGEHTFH
T1 sequence (Q96SW2 whole entry): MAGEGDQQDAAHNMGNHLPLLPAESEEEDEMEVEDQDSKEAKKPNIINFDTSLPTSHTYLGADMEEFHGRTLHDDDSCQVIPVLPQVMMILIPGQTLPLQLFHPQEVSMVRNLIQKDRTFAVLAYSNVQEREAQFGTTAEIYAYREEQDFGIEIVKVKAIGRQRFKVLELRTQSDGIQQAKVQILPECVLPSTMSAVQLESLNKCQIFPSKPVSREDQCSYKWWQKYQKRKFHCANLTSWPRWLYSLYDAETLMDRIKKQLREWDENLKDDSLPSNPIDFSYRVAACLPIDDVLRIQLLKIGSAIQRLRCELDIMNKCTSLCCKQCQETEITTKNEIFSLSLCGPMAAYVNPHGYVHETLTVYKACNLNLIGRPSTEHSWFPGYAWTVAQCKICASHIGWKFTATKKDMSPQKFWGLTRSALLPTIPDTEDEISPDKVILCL
T1 sequence (Q16531 whole entry partner): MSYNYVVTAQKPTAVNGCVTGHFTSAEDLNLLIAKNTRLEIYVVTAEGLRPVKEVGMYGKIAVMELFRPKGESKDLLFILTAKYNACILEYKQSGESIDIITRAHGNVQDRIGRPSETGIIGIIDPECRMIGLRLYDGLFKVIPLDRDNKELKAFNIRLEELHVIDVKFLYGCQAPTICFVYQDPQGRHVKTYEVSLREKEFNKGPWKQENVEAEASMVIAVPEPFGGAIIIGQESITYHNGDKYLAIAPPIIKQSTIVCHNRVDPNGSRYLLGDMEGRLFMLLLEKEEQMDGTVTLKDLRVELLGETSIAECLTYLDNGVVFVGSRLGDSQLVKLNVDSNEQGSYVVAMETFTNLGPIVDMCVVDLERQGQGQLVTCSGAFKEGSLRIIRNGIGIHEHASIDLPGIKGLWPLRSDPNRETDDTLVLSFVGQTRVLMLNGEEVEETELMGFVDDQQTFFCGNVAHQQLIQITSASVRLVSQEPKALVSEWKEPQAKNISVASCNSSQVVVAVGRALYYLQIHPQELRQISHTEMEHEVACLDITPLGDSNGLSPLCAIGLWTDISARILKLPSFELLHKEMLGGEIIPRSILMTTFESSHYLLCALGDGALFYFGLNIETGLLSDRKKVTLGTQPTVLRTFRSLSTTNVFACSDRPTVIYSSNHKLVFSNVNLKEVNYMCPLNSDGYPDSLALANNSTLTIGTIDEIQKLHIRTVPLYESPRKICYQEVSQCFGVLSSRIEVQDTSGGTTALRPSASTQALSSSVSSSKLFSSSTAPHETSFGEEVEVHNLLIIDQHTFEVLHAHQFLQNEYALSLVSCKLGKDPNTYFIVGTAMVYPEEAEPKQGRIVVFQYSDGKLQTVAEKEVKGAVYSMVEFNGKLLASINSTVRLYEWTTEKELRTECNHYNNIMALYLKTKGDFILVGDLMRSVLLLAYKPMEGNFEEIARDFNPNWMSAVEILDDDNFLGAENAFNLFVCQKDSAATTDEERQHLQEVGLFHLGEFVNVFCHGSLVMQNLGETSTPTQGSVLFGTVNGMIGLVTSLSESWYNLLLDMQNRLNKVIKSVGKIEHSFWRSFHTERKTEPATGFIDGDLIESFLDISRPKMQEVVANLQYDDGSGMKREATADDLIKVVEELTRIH

IKZF3 = target: T2, IKZF3 (Homo sapiens, UniProt Q96SW2+Q9UKT9); test: Western-blot assay, substrate protein degradation in hPBMCs: IKZF3; details: for IKZF3 substrate protein remaining %: compounds at 50 nM and 500 nM, 24 hours; for substrate protein remaining % IKZF3: 24 hours of compound treatment, 50 nM and 500 nM
T2 construct: effects of the compounds of the present disclosure on the expression of target proteins in cells; endogenous in cells; host or cells: human PBMCs (hPBMCs)
T2 sequence (Q9UKT9 whole entry): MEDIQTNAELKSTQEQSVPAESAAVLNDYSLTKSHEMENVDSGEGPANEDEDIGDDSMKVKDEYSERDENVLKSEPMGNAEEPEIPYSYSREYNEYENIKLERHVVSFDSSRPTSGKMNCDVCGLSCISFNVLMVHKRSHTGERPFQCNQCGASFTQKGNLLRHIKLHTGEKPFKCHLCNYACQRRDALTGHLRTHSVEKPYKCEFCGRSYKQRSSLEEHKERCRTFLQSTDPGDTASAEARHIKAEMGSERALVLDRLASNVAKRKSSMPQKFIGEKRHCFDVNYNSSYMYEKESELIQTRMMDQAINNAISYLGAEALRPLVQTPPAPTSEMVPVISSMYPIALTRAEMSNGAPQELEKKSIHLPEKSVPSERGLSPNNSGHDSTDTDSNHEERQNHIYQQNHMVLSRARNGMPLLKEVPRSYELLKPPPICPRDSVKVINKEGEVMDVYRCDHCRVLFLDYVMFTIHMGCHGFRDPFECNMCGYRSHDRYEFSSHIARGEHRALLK
T2 sequence (Q96SW2 whole entry): as the sequence (Q96SW2 whole entry) above
T2 sequence (Q16531 whole entry partner): as the sequence (Q16531 whole entry partner) above

IKZF1 = target: T3, IKZF1 (Homo sapiens, UniProt Q13422+Q96SW2); test: Western-blot assay, substrate protein degradation in hPBMCs: IKZF1; details: for IKZF1 substrate protein remaining %: compounds at 50 nM and 500 nM, 24 hours; for substrate protein remaining % IKZF1: 24 hours of compound treatment, 50 nM and 500 nM
T3 construct: effects of the compounds of the present disclosure on the expression of target proteins in cells; endogenous in cells; host or cells: human PBMCs (hPBMCs)
T3 sequence (Q13422 whole entry): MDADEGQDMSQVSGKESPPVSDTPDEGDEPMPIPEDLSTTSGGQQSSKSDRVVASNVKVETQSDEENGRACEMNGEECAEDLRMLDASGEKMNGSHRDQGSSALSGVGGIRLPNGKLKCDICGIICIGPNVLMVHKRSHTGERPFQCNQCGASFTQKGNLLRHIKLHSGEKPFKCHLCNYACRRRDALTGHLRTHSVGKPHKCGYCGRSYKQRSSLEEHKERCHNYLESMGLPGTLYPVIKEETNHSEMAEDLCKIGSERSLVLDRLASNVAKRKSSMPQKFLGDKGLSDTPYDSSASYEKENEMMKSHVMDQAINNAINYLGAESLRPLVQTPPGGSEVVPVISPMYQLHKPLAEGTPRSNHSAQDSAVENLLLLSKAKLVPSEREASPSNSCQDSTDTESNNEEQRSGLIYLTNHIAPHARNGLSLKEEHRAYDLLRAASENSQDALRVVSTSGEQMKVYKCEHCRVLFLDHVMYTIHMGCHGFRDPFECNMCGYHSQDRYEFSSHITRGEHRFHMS
T3 sequence (Q96SW2 whole entry): as the sequence (Q96SW2 whole entry) above
T3 sequence (Q16531 whole entry partner): as the sequence (Q16531 whole entry partner) above

WEE1 = target: T4, WEE1 (Homo sapiens, UniProt P30291+Q96SW2); test: Western-blot assay, substrate protein degradation in hPBMCs: WEE1; details: for WEE1 substrate protein remaining %: compounds at 50 nM and 500 nM, 24 hours; for substrate protein remaining % WEE1: 24 hours of compound treatment, 50 nM and 500 nM
T4 construct: effects of the compounds of the present disclosure on the expression of target proteins in cells; endogenous in cells; host or cells: human PBMCs (hPBMCs)
T4 sequence (P30291 whole entry): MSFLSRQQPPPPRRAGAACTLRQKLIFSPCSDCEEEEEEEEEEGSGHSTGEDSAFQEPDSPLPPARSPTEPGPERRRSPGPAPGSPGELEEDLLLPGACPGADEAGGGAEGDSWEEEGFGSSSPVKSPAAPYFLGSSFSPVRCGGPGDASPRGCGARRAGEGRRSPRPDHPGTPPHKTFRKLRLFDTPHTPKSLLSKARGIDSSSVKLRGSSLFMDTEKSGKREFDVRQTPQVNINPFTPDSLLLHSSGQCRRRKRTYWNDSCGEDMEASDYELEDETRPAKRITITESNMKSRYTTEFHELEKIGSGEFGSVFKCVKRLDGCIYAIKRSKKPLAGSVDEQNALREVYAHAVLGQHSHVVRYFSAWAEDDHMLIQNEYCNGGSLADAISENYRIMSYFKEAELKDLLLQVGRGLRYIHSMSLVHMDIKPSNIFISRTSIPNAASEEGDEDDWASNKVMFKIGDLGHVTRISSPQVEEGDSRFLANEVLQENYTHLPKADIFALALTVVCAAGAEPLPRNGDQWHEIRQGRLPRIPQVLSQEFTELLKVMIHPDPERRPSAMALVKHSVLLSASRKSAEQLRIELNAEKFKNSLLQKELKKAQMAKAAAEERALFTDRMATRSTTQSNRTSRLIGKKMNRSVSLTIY
T4 sequence (Q96SW2 whole entry): as the sequence (Q96SW2 whole entry) above
T4 sequence (Q16531 whole entry partner): as the sequence (Q16531 whole entry partner) above

GSPT1 = target: T5, GSPT1 (Homo sapiens, UniProt P15170+Q96SW2); test: Western-blot assay, substrate protein degradation in hPBMCs: GSPT1; details: for GSPT1 substrate protein remaining %: compounds at 50 nM and 500 nM, 24 hours; for substrate protein remaining % GSPT1: 24 hours of compound treatment, 50 nM and 500 nM
T5 construct: effects of the compounds of the present disclosure on the expression of target proteins in cells; endogenous in cells; host or cells: human PBMCs (hPBMCs)

CK1α = target: T6, CK1α (Homo sapiens, UniProt P48729+Q96SW2); test: Western-blot assay, substrate protein degradation in hPBMCs: CK1α; details: for CK1α substrate protein remaining %: compounds at 50 nM and 500 nM, 24 hours; for substrate protein remaining % CK1α: 24 hours of compound treatment, 50 nM and 500 nM
T6 construct: effects of the compounds of the present disclosure on the expression of target proteins in cells; endogenous in cells; host or cells: human PBMCs (hPBMCs)
T6 sequence (P48729 whole entry): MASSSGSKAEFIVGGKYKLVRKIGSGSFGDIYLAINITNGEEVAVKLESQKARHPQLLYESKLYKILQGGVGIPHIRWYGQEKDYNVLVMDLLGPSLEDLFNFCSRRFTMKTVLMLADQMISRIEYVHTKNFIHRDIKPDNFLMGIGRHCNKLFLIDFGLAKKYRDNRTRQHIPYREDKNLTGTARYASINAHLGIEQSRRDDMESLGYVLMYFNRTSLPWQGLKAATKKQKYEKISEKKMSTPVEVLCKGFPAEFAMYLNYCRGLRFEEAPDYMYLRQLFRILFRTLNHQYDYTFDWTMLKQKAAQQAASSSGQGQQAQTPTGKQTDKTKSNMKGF
T6 sequence (Q96SW2 whole entry): as the sequence (Q96SW2 whole entry) above
T6 sequence (Q16531 whole entry partner): as the sequence (Q16531 whole entry partner) above

Compound | IKZF2 substrate protein remaining % (IKZF2) | IKZF3 substrate protein remaining % (IKZF3) | IKZF1 substrate protein remaining % (IKZF1) | WEE1 substrate protein remaining % (WEE1) | GSPT1 substrate protein remaining % (GSPT1) | CK1α substrate protein remaining % (CK1α) | substrate protein remaining % IKZF2 (IKZF2) | substrate protein remaining % IKZF3 (IKZF3) | substrate protein remaining % IKZF1 (IKZF1) | substrate protein remaining % WEE1 (WEE1) | substrate protein remaining % GSPT1 (GSPT1) | substrate protein remaining % CK1α (CK1α)
Cc1cc(N2CCN(Cc3ccc4c(c3)CN(N3CCC(=O)NC3=O)C4=O)CC2)cs1 [GT-05087, 1-(5-((4-(5-methylthiophen-3-yl)piperazin-1-yl)methyl)-1-oxoisoindolin-2-yl)dihydropyrimidine-2,4(1H,3H)-dione] | B ("B" is defined as 80%< substrate protein remaining %≤ 100%) | B ("B" is defined as 80%< substrate protein remaining %≤ 100%) | B ("B" is defined as 80%< substrate protein remaining %≤ 100%) | B ("B" is defined as 80%< substrate protein remaining %≤ 100%) | A ("A" is defined as 0% ≤ substrate protein remaining % ≤ 80%) | B ("B" is defined as 80%< substrate protein remaining %≤ 100%) |  |  |  |  |  | 
O=C1CCN(N2Cc3cc(CN4CCc5sccc5C4)ccc3C2=O)C(=O)N1 [GT-07720, 1-(5-((6,7-dihydrothieno[3,2-c]pyridin-5(4H)-yl)methyl)-1-oxoisoindolin-2-yl)dihydropyrimidine-2,4(1H,3H)-dione] |  |  |  |  |  |  | A (0% ≤ substrate protein remaining % ≤ 80%) | A (0% ≤ substrate protein remaining % ≤ 80%) | A (0% ≤ substrate protein remaining % ≤ 80%) | A (0% ≤ substrate protein remaining % ≤ 80%) | A (0% ≤ substrate protein remaining % ≤ 80%) | A (0% ≤ substrate protein remaining % ≤ 80%)
O=C1CCN(N2C(=O)c3ccc(CN4CCN(c5ccc(F)c(F)c5)CC4)cc3C2=O)C(=O)N1 [GT-06797, 5-((4-(3,4-difluorophenyl)piperazin-1-yl)methyl)-2-(2,4-dioxotetrahydropyrimidin-1(2H)-yl)isoindoline-1,3-dione] | B ("B" is defined as 80%< substrate protein remaining %≤ 100%) | B ("B" is defined as 80%< substrate protein remaining %≤ 100%) | B ("B" is defined as 80%< substrate protein remaining %≤ 100%) | A ("A" is defined as 0% ≤ substrate protein remaining % ≤ 80%) | B ("B" is defined as 80%< substrate protein remaining %≤ 100%) | B ("B" is defined as 80%< substrate protein remaining %≤ 100%) |  |  |  |  |  | 
O=C1CCN(N2Cc3cc(CN4CCC(c5ccnc(Cl)c5Cl)CC4)ccc3C2=O)C(=O)N1 [GT-06390, 1-(5-((4-(2,3-dichloropyridin-4-yl)piperidin-1-yl)methyl)-1-oxoisoindolin-2-yl)dihydropyrimidine-2,4(1H,3H)-dione] | B ("B" is defined as 80%< substrate protein remaining %≤ 100%) | B ("B" is defined as 80%< substrate protein remaining %≤ 100%) | B ("B" is defined as 80%< substrate protein remaining %≤ 100%) | B ("B" is defined as 80%< substrate protein remaining %≤ 100%) | A ("A" is defined as 0% ≤ substrate protein remaining % ≤ 80%) | B ("B" is defined as 80%< substrate protein remaining %≤ 100%) |  |  |  |  |  | 
CC1CN(C(c2ccccc2)c2ccccc2)CC(C)N1Cc1ccc2c(c1)CN(N1CCC(=O)NC1=O)C2=O (stereo not drawn) [GT-07433, 1-(5-((4-benzhydryl-2,6-dimethylpiperazin-1-yl)methyl)-1-oxoisoindolin-2-yl)dihydropyrimidine-2,4(1H,3H)-dione] |  |  |  |  |  |  | A (0% ≤ substrate protein remaining % ≤ 80%) | B (80%< substrate protein remaining %≤ 100%) | B (80%< substrate protein remaining %≤ 100%) | B (80%< substrate protein remaining %≤ 100%) | B (80%< substrate protein remaining %≤ 100%) | A (0% ≤ substrate protein remaining % ≤ 80%)
Cc1ccc(N2CCN(Cc3ccc4c(c3)C(=O)N(N3CCC(=O)NC3=O)C4=O)CC2)s1 [GT-05309, 2-(2,4-dioxotetrahydropyrimidin-1(2H)-yl)-5-((4-(5-methylthiophen-2-yl)piperazin-1-yl)methyl)isoindoline-1,3-dione] | B ("B" is defined as 80%< substrate protein remaining %≤ 100%) | B ("B" is defined as 80%< substrate protein remaining %≤ 100%) | B ("B" is defined as 80%< substrate protein remaining %≤ 100%) | B ("B" is defined as 80%< substrate protein remaining %≤ 100%) | A ("A" is defined as 0% ≤ substrate protein remaining % ≤ 80%) | B ("B" is defined as 80%< substrate protein remaining %≤ 100%) |  |  |  |  |  | 
O=C1CCN(N2Cc3cc(CN4CCC(c5ccco5)CC4)ccc3C2=O)C(=O)N1 [GT-07374, 1-(5-((4-(furan-2-yl)piperidin-1-yl)methyl)-1-oxoisoindolin-2-yl)dihydropyrimidine-2,4(1H,3H)-dione] |  |  |  |  |  |  | B (80%< substrate protein remaining %≤ 100%) | B (80%< substrate protein remaining %≤ 100%) | B (80%< substrate protein remaining %≤ 100%) | B (80%< substrate protein remaining %≤ 100%) | A (0% ≤ substrate protein remaining % ≤ 80%) | A (0% ≤ substrate protein remaining % ≤ 80%)
O=C1CCN(N2C(=O)c3ccc(CN4C5CC4CN(C(=O)C4=C(c6ccc(F)cc6)CCCC4)C5)cc3C2=O)C(=O)N1 [GT-07377, 2-(2,4-dioxotetrahydropyrimidin-1(2H)-yl)-5-((3-(4'-fluoro-3,4,5,6-tetrahydro-[1,1'-biphenyl]-2-carbonyl)-3,6-diazabicyclo[3.1.1]heptan-6-yl)methyl)isoindoline-1,3-dione] |  |  |  |  |  |  | A (0% ≤ substrate protein remaining % ≤ 80%) | B (80%< substrate protein remaining %≤ 100%) | B (80%< substrate protein remaining %≤ 100%) | A (0% ≤ substrate protein remaining % ≤ 80%) | A (0% ≤ substrate protein remaining % ≤ 80%) | A (0% ≤ substrate protein remaining % ≤ 80%)
O=C1CCN(N2Cc3cc(CN4C5CCC4CN(C(c4ccccc4)c4ccccc4)C5)ccc3C2=O)C(=O)N1 [GT-06454, 1-(5-((3-benzhydryl-3,8-diazabicyclo[3.2.1]octan-8-yl)methyl)-1-oxoisoindolin-2-yl)dihydropyrimidine-2,4(1H,3H)-dione] | B ("B" is defined as 80%< substrate protein remaining %≤ 100%) | B ("B" is defined as 80%< substrate protein remaining %≤ 100%) | B ("B" is defined as 80%< substrate protein remaining %≤ 100%) | A ("A" is defined as 0% ≤ substrate protein remaining % ≤ 80%) | B ("B" is defined as 80%< substrate protein remaining %≤ 100%) | B ("B" is defined as 80%< substrate protein remaining %≤ 100%) |  |  |  |  |  | 
O=C1CCN(N2C(=O)c3ccc(CN4CCC(c5cccc(Cl)c5Cl)CC4)cc3C2=O)C(=O)N1 [GT-05250, 5-((4-(2,3-dichlorophenyl)piperidin-1-yl)methyl)-2-(2,4-dioxotetrahydropyrimidin-1(2H)-yl)isoindoline-1,3-dione] | A ("A" is defined as 0% ≤ substrate protein remaining % ≤ 80%) | B ("B" is defined as 80%< substrate protein remaining %≤ 100%) | B ("B" is defined as 80%< substrate protein remaining %≤ 100%) | B ("B" is defined as 80%< substrate protein remaining %≤ 100%) | B ("B" is defined as 80%< substrate protein remaining %≤ 100%) | B ("B" is defined as 80%< substrate protein remaining %≤ 100%) |  |  |  |  |  | 
O=C1CCN(N2C(=O)c3ccc(CN4CCC(c5noc6ccccc56)CC4)cc3C2=O)C(=O)N1 [GT-07522, 5-((4-(benzo[d]isoxazol-3-yl)piperidin-1-yl)methyl)-2-(2,4-dioxotetrahydropyrimidin-1(2H)-yl)isoindoline-1,3-dione] |  |  |  |  |  |  | A (0% ≤ substrate protein remaining % ≤ 80%) | B (80%< substrate protein remaining %≤ 100%) | A (0% ≤ substrate protein remaining % ≤ 80%) | A (0% ≤ substrate protein remaining % ≤ 80%) | A (0% ≤ substrate protein remaining % ≤ 80%) | A (0% ≤ substrate protein remaining % ≤ 80%)
O=C1CCN(N2C(=O)c3ccc(CN4CCN(c5ccnc(Cl)c5F)CC4)cc3C2=O)C(=O)N1 [GT-07166, 5-((4-(2-chloro-3-fluoropyridin-4-yl)piperazin-1-yl)methyl)-2-(2,4-dioxotetrahydropyrimidin-1(2H)-yl)isoindoline-1,3-dione] | A ("A" is defined as 0% ≤ substrate protein remaining % ≤ 80%) | B ("B" is defined as 80%< substrate protein remaining %≤ 100%) | B ("B" is defined as 80%< substrate protein remaining %≤ 100%) | B ("B" is defined as 80%< substrate protein remaining %≤ 100%) | A ("A" is defined as 0% ≤ substrate protein remaining % ≤ 80%) | B ("B" is defined as 80%< substrate protein remaining %≤ 100%) |  |  |  |  |  | 
